Values quoted from earlier work in PMC11647681, “Discovery of Non-Covalent Inhibitors for SARS-CoV-2 PLpro: Integrating Virtual Screening, Synthesis, and Experimental Validation” (ACS Medicinal Chemistry Letters, 2024).

System: SARS-CoV-2, and its variants
Set-up: method as in PMID 38547259
Conditions: cited from earlier work

CCn1ccc(-c2cc(-c3cnn(C)c3)cc([C@@H](C)NC(=O)c3cc(OCCN(C)C)ccc3C)c2)n1 [Jun12682]
activity against SARS-CoV-2, and its variants, in vivo: confirmed
